Data as given in patent publication US11053250B2, “Pyrrolo[1,2-b]pyridazine derivatives” (Gilead Sciences, Inc., priority 2018, dated 2021).

Tests used:
IRAK4 enzyme = IRAK4 enzyme (Homo sapiens (Human), UniProt Q9NWZ3); test: IRAK4 Biochemical Assay (TR-FRET/HTRF); settings: 0.75 nM IRAK4, 500 μM ATP, STK1 peptide
Method: IRAK4 enzyme (Carna Biosciences, Chuo-ku, Kobe, Japan) activity was measured by detecting phosphorylated peptide substrate formation using an antibody against the phosphorylated peptide substrate. This is a time-resolved fluorescence resonance energy transfer (TR-FRET) immunoassay, based on the STK1 KinEASE Assay (Cisbio, Bedford, Mass.). The assay was designed as a simple two-step, endpoint assay (a 5 μl enzyme reaction followed by 5 μl stop and detect Solution) performed in ProxiPlate-384 Plus plates (Perkin Elmer, Waltham, Mass.). Staurosporine, a non-selective kinase inhibitor was used as a positive control. Compounds diluted in DMSO were spotted into 384 well plates using a Labcyte® Echo 550 Liquid Handling System prior to addition of IRAK4 enzyme and peptide substrate. Reaction solutions were delivered using a Multi-Flo (Bio-Tek Instruments). The enzyme and peptide solution was incubated with compound for 15 minutes at room temp before the reaction was initiated by the addition of ATP. The standard 5 μl reaction mixture contained 500 μM ATP, 2 μM peptide (STK1 Peptide), 0.75 nM of IRAK4 in reaction buffer (50 mM HEPES, pH 7.0, 0.02% NaN3, 0.01% BSA, 0.1 mM Orthovanadate, 5 mM MgCl2, 0.025% NP-40, 1 mM DTT). After 120 min of incubation at room temperature, 5 μl of Stop and Detect Solution (1:100 Cryptate labeled anti-phosphorylated peptide antibody solution and 125 nM Tracer in a 50 mM HEPES pH 7.0 detection buffer containing sufficient EDTA) was added. The plate was then further incubated for 60 minutes at room temperature and read on Envision 2103 Multilabeled reader (PerkinElmer) with excitation/emission/FRET emission at 340 nm/615 nm/665 nm, respectively. Fluorescence intensities at 615 nm and 665 nm emission wavelengths were expressed as a ratio (665 nm/615 nm). Percentage of inhibition was calculated as below: % Inhibition=100×(RatioSample−Ratio0% Inhibition)/(Ratio100% Inhibition−Ratio0% Inhibition)
The 0% inhibition value comes from control wells lacking inhibitor. The 100% inhibition value comes from control wells containing a saturating amount of known inhibitor staurosporine.

TNFα = test: IRAK4 Monocyte TNFα Cell Based Assay; settings: cryopreserved human monocytes, LPS 50 pg/ml stimulation, TNFα by TR-FRET
Method: The cell suspension was then plated at a density of 5,000 cells/well onto black 384 well Greiner clear bottom plates. Plates were pre-spotted with test compounds and serially diluted in DMSO where 40 nL/well were delivered using the Echo 550 acoustic liquid dispenser (Labcyte®) for a final DMSO concentration of 0.1%. Plated cells were treated with compound for 1 hour at 37° C. Cells were then stimulated with 50 pg/ml of LPS (Sigma) excluding outside columns of plate used for unstimulated cell control wells. Cells were incubated for an additional 4 hours at 37° C. Cells were then spun out of the media and 5 μl of sample were taken and analyzed for total TNFα content using the TR-FRET Human TNFα detection system (CisBio). This system utilizes two labeled antibodies (cryptate and XL665) that bind to two different epitopes of the TNFα molecule and produce FRET signal proportional to the concentration of TNFα in the sample. Detection antibodies are mixed 50:50 and 5 μL were dispensed into each well. Plates were covered with clear seals and incubated at room temp overnight. The following morning plates were read using an Envision 2103 Multilabeled reader (PerkinElmer) with excitation/emission/FRET emission at 340 nm/615 nm/665 nm, respectively. Fluorescence intensities at 615 nm and 665 nm emission wavelengths were expressed as a ratio (665 nm/615 nm). Percent of control was calculated as follows: % Control=100×(RatioSample−Ratio0% stimulation)/(Ratio100% Stimulation−Ratio0% stimulation) where unstimulated cells (0% stimulation) were the negative control and stimulated cells (100% stimulation) were used as the positive control.

IRAK4 enzyme, sequence (Q9NWZ3 whole entry): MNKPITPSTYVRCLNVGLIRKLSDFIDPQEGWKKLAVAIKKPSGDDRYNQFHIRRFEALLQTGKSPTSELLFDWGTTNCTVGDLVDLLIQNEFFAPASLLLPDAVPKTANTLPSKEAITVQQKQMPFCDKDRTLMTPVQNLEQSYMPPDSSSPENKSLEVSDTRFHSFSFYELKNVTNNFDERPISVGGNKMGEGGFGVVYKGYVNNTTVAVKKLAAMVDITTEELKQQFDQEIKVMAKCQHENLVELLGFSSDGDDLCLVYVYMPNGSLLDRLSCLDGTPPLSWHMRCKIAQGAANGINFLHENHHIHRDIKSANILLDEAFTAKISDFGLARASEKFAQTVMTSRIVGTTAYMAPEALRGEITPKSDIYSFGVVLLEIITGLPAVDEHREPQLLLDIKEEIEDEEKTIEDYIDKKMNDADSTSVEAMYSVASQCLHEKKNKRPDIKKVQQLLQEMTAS

IC50 (IRAK4 enzyme) [nM]	EC50 (TNFα; Monocyte) [nM]	EC50 (TNFα) [nM]	Compound
< 1	50	–	CC(C)Nc1cc(-c2ccc3cc(C#N)cnn23)ncc1-c1cn(C2CCNCC2)nn1 [Compound 43, 7-(4-(isopropylamino)-5-(1-(piperidin-4-yl)-1H-1,2,3-triazol-4-yl)pyridin-2-yl)pyrrolo[1,2-b]pyridazine-3-carbonitrile]
< 1	12	–	C[C@H](C#N)Nc1cc(-c2ccc3cc(C#N)cnn23)ncc1-c1cn(C[C@@H](F)C(C)(C)O)nn1 [Compound 1, 7-(4-(((R)-1-cyanoethyl)amino)-5-(1-((R)-2-fluoro-3-hydroxy-3-methylbutyl)-1H-1,2,3-triazol-4-yl)pyridin-2-yl)pyrrolo[1,2-b]pyridazine-3-carbonitrile]
< 1	23	–	CC(C)(O)[C@H](F)Cn1cc(-c2cnc(-c3ccc4cc(C#N)cnn34)cc2NC2COC2)nn1 [Compound 31, (R)-7-(5-(1-(2-fluoro-3-hydroxy-3-methylbutyl)-1H-1,2,3-triazol-4-yl)-4-(oxetan-3-ylamino)pyridin-2-yl)pyrrolo[1,2-b]pyridazine-3-carbonitrile]
< 1	–	17	COC(=O)NCC1CC(Nc2cc(-c3ccc4cc(C#N)cnn34)ncc2-c2cn(CC3CC(O)C3)nn2)C1 [Compound 8, methyl (((1R,3r)-3-((2-(3-cyanopyrrolo[1,2-b]pyridazin-7-yl)-5-(1-(((1s,3S)-3-hydroxycyclobutyl)methyl)-1H-1,2,3-triazol-4-yl)pyridin-4-yl)amino)cyclobutyl)methyl)carbamate]
< 1	–	6	CC(C)(O)[C@H](F)Cn1cc(-c2cnc(-c3ccc4cc(C#N)cnn34)cc2N[C@H]2CC[C@H](c3nncs3)CC2)nn1 [Compound 38, 7-(4-(((1r,4R)-4-(1,3,4-thiadiazol-2-yl)cyclohexyl)amino)-5-(1-((R)-2-fluoro-3-hydroxy-3-methylbutyl)-1H-1,2,3-triazol-4-yl)pyridin-2-yl)pyrrolo[1,2-b]pyridazine-3-carbonitrile]
1	85	–	CNC(=O)Cn1cc(-c2cnc(-c3ccc4cc(C#N)cnn34)cc2NC(C)C)nn1 [Compound 45, 2-(4-(6-(3-cyanopyrrolo[1,2-b]pyridazin-7-yl)-4-(isopropylamino)pyridin-3-yl)-1H-1,2,3-triazol-1-yl)-N-methylacetamide]
7	534	–	CC(C)Nc1cc(-c2ccc3cc(C#N)cnn23)ncc1-c1cn(C2CCN(C(=O)OC(C)(C)C)CC2)nn1 [Compound 46, tert-butyl 4-(4-(6-(3-cyanopyrrolo[1,2-b]pyridazin-7-yl)-4-(isopropylamino)pyridin-3-yl)-1H-1,2,3-triazol-1-yl)piperidine-1-carboxylate]

Second part, the compound before the results:

Compound	IC50 (IRAK4 enzyme) [nM]	EC50 (TNFα; Monocyte) [nM]	EC50 (TNFα) [nM]
Cn1cc(-c2cnc(-c3ccc4cc(C#N)cnn34)cc2N[C@H]2CCC[C@@H](O)C2)nn1 [Compound 12, 7-(4-(((1S,3R)-3-hydroxycyclohexyl)amino)-5-(1-methyl-1H-1,2,3-triazol-4-yl)pyridin-2-yl)pyrrolo[1,2-b]pyridazine-3-carbonitrile]	1	30	–
CC(C)Nc1cc(-c2ccc3cc(C#N)cnn23)ncc1-c1cn(C2COC2)nn1 [Compound 53, 7-(4-(isopropylamino)-5-(1-(oxetan-3-yl)-1H-1,2,3-triazol-4-yl)pyridin-2-yl)pyrrolo[1,2-b]pyridazine-3-carbonitrile]	2	171	–
CNc1cc(-c2ccc3cc(C#N)cnn23)ncc1-c1cn(CCC(C)(C)O)nn1 [Compound 26, 7-(5-(1-(3-hydroxy-3-methylbutyl)-1H-1,2,3-triazol-4-yl)-4-(methylamino)pyridin-2-yl)pyrrolo[1,2-b]pyridazine-3-carbonitrile]	2	79	–
CC(C)Nc1cc(-c2ccc3cc(C#N)cnn23)ncc1-c1cn(CC(=O)N(C)C)nn1 [Compound 44, 2-(4-(6-(3-cyanopyrrolo[1,2-b]pyridazin-7-yl)-4-(isopropylamino)pyridin-3-yl)-1H-1,2,3-triazol-1-yl)-N,N-dimethylacetamide]	1	61	–
CC(C)(O)[C@H](F)Cn1cc(-c2cnc(-c3ccc4cc(C#N)cnn34)cc2NC23CCC(N4CCOC4=O)(CC2)CC3)nn1 [Compound 35, (R)-7-(5-(1-(2-fluoro-3-hydroxy-3-methylbutyl)-1H-1,2,3-triazol-4-yl)-4-((4-(2-oxooxazolidin-3-yl)bicyclo[2.2.2]octan-1-yl)amino)pyridin-2-yl)pyrrolo[1,2-b]pyridazine-3-carbonitrile]	< 1	3	–
CC(C)Nc1cc(-c2ccc3cc(C#N)cnn23)ncc1-c1cn(C2(C(F)(F)F)CC2)nn1 [Compound 58, 7-(4-(isopropylamino)-5-(1-(1-(trifluoromethyl)cyclopropyl)-1H-1,2,3-triazol-4-yl)pyridin-2-yl)pyrrolo[1,2-b]pyridazine-3-carbonitrile]	12	1240	–
COC(=O)NC[C@H]1C[C@H](Nc2cc(-c3ccc4cc(C#N)cnn34)ncc2-c2cn(CCC(C)(C)O)nn2)C1 [Compound 30, methyl (((1r,3r)-3-((2-(3-cyanopyrrolo[1,2-b]pyridazin-7-yl)-5-(1-(3-hydroxy-3-methylbutyl)-1H-1,2,3-triazol-4-yl)pyridin-4-yl)amino)cyclobutyl)methyl)carbamate]	< 1	–	4
CNc1cc(-c2ccc3cc(C#N)cnn23)ncc1-c1cn([C@H]2CC[C@H](NC(=O)C3CC3)CC2)nn1 [Compound 20, N-((1r,4r)-4-(4-(6-(3-cyanopyrrolo[1,2-b]pyridazin-7-yl)-4-(methylamino)pyridin-3-yl)-1H-1,2,3-triazol-1-yl)cyclohexyl)cyclopropanecarboxamide]	1	–	62
COC(=O)N1CCC(n2cc(-c3cnc(-c4ccc5cc(C#N)cnn45)cc3NC(C)C)nn2)CC1 [Compound 40, methyl 4-(4-(6-(3-cyanopyrrolo[1,2-b]pyridazin-7-yl)-4-(isopropylamino)pyridin-3-yl)-1H-1,2,3-triazol-1-yl)piperidine-1-carboxylate]	1	84	–
COC(=O)NC[C@H]1C[C@H](Nc2cc(-c3ccc4cc(C#N)cnn34)ncc2-c2cn(C(F)F)nn2)C1 [Compound 4, methyl (((1r,3r)-3-((2-(3-cyanopyrrolo[1,2-b]pyridazin-7-yl)-5-(1-(difluoromethyl)-1H-1,2,3-triazol-4-yl)pyridin-4-yl)amino)cyclobutyl)methyl)carbamate]	2	–	130
CC(=O)N1CCC(n2cc(-c3cnc(-c4ccc5cc(C#N)cnn45)cc3NC(C)C)nn2)CC1 [Compound 42, 7-(5-(1-(1-acetylpiperidin-4-yl)-1H-1,2,3-triazol-4-yl)-4-(isopropylamino)pyridin-2-yl)pyrrolo[1,2-b]pyridazine-3-carbonitrile]	1	33	–
COC(=O)NC[C@H]1C[C@H](Nc2cc(-c3ccc4cc(C#N)cnn34)ncc2-c2cn(C[C@@H](F)C(C)(C)O)nn2)C1 [Compound 39, methyl (((1R,3r)-3-((2-(3-cyanopyrrolo[1,2-b]pyridazin-7-yl)-5-(1-((R)-2-fluoro-3-hydroxy-3-methylbutyl)-1H-1,2,3-triazol-4-yl)pyridin-4-yl)amino)cyclobutyl)methyl)carbamate]	< 1	–	6
